From the NIST ThermoML archive (doi:10.1021/acs.jced.7b01064)

What was measured:
[1] = xn = mol fraction of the nth substance listed; details: 100 kPa, Liquid, x1 = 0.5; for viscosity: Concentric cylinders viscometry; for mass density: Vibrating tube method
[2] = molar heat capacity at constant pressure; xn = mol fraction of the nth substance listed; details: 74.66 kPa, Liquid, DSC, x1 = 0.5
[3] = Liquid, Closed cell (Static) method

CCCCOC(=O)CC(O)(CC(=O)O)C(=O)OCCCC (configuration not stated) [2-hydroxy-1,2,3-propanetricarboxylic acid 1,2-dibutyl ester] + CCCCOC(=O)CC(O)(CC(=O)OCCCC)C(=O)O
Details | mass density [kg/m3] | molar heat capacity at constant pressure [J/K/mol] | viscosity [mPa·s]
[1], 298.15 K | 1129.7 | – | 3220
[1], 303.15 K | 1124.2 | – | 2120
[1], 313.15 K | 1113.4 | – | 1130
[2], 321.5 K | – | 712.66 | –
[2], 324.8 K | – | 718.9 | –
[2], 328.2 K | – | 724.78 | –
[2], 331.5 K | – | 730.1 | –
[2], 334.8 K | – | 734.82 | –
[2], 338.2 K | – | 739.17 | –
[2], 341.5 K | – | 743.58 | –
[2], 344.8 K | – | 747.72 | –

CCCCO [butan-1-ol]
[3]
Details | vapor or sublimation pressure [kPa]
293.15 K | 0.56
298.15 K | 0.84
303.15 K | 1.23
308.15 K | 1.76
313.15 K | 2.44
318.15 K | 3.33
323.15 K | 4.35
328.15 K | 5.33
